Laboratory results reported in PMC3501516, “Anti-Diabetic Efficacy and Impact on Amino Acid Metabolism of GRA1, a Novel Small-Molecule Glucagon Receptor Antagonist” (PLoS ONE, 2012).

Columns and labels:
human GCGR (hGCGR) = target: T1, human GCGR (hGCGR) (Homo sapiens, UniProt P47871); experiment: Inhibition of glucagon-stimulated cAMP production in intact CHO cells expressing human GCGR; type: cell-based
T1 construct: expressed in transfected cells
Excerpt: (§1) Transfected Chinese hamster ovary (CHO) cell lines were acquired and maintained as previously described, [20]. These included separate cell lines stably expressing human GCGR (hGCGR), mouse GCGR, rhesus GGCR, glucose-dependent insulinotropic peptide receptor (GIPR), GLP-1 receptor (GLP-1R), pituitary adenylate cyclase-activating polypeptide receptor type 1 (PAC1R), and vasoactive adenylate cyclase-activating polypeptide receptor type 2 (VPAC2R). Inhibition of glucagon binding to hGCGR was assayed in cell membranes prepared from the line of CHO cells that expressed the hGCGR. Functional antagonism was assayed by measuring the production of cAMP in intact CHO cells stimulated by agonists specific for their cognate receptors (i.e., glucagon for GCGR-expressing cell lines, GIP for the GIPR-expressing line, etc.). Primary human hepatocytes were obtained from In Vitro Technologies (Baltimore, MD) and glucagon-stimulated glycogenolysis was studied in these as previously described.

[1] = target: T2, PAC1R (pituitary adenylate cyclase-activating polypeptide receptor type 1) (Homo sapiens, UniProt P41586); experiment: Inhibition of agonist-stimulated cAMP production in CHO cells expressing PAC1R; type: cell-based; settings: PAC1-stimulated
T2 construct: expressed in transfected cells
T2 sequence (P41586 21-468): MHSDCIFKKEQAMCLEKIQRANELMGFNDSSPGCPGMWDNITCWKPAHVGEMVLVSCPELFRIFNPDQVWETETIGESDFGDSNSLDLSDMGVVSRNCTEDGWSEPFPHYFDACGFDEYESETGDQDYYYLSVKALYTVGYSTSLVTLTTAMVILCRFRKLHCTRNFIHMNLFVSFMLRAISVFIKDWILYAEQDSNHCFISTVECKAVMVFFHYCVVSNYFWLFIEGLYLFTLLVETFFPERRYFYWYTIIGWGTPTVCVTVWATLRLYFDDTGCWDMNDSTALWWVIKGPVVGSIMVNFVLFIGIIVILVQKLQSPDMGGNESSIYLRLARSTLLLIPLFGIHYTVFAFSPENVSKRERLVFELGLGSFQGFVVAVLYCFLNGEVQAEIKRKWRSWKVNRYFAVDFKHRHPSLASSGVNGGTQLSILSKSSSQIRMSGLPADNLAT
Excerpt: as §1

rhesus monkey = experiment: Blunting of glucagon-induced blood glucose excursion in rhesus monkey; type: in vivo; settings: 1 mg/kg 4 h before 15 µg/kg glucagon i.m.
Experimental: In mouse studies of glucagon-induced excursions in blood glucose, animals were dosed orally with vehicle (10 mL/kg 0.5% aqueous methylcellulose) or GRA1 one hour prior to challenge by intraperitoneal injection of 15 µg/kg glucagon (Eli Lilly, Indianapolis, IN) or vehicle, [20]. In the studies in monkey, GRA1 or vehicle was administered to chair-restrained animals via a nasogastric tube 4 h prior to intramuscular injection of 15 µg/kg glucagon. Blood glucose measurements were made using a OneTouch glucometer (Lifescan, Milpitas, CA).
Figure 3 Blunting of glucagon-induced blood glucose excursions by GRA1 treatment in the (A) hGCGR mouse and (B) rhesus monkey. In (A), mice (n = 8) were administered vehicle or 3, 10 or 30 mg/kg GRA1, then challenged 1 h later (time 0) by intraperitoneal injection of 15 µg/kg glucagon or vehicle. Pharmacokinetic analysis determined that these animals had mean plasma GRA1 concentrations of 0.4, 0.9, and 4.7 µM, respectively, at 1 h postdose. In (B), monkeys (n = 4) were administered 1 mg/kg GRA1 4 h prior to intramuscular injection of 15 µg/kg glucagon or vehicle. At 1 h postdose, the mean plasma GRA1 concentration in these animals was 0.2 µM. *p<0.05; **p<0.01; and ***p<0.001 vs. glucagon-treated control animals.

rhesus GCGR = target: T3, rhesus GCGR (Macaca mulatta, UniProt A0A1D5QZY8); experiment: Inhibition of glucagon-stimulated cAMP production in CHO cells expressing rhesus GCGR; type: cell-based
T3 construct: expressed in transfected cells
T3 sequence (A0A1D5QZY8 27-491): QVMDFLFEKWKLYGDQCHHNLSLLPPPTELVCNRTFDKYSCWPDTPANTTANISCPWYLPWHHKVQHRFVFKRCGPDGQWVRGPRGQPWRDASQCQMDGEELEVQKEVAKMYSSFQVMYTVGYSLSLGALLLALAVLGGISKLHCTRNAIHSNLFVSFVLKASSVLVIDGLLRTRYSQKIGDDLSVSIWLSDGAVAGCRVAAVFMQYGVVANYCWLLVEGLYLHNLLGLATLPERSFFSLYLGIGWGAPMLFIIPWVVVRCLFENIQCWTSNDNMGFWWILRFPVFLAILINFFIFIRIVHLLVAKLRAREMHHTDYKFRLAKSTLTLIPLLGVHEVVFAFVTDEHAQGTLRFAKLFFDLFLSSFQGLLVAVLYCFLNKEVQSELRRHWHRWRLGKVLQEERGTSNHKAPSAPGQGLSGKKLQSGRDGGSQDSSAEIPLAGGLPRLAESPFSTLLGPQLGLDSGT
Experimental: Transfected Chinese hamster ovary (CHO) cell lines were acquired and maintained as previously described [17], [20]. These included separate cell lines stably expressing human GCGR (hGCGR), mouse GCGR, rhesus GGCR, glucose-dependent insulinotropic peptide receptor (GIPR), GLP-1 receptor (GLP-1R), pituitary adenylate cyclase-activating polypeptide receptor type 1 (PAC1R), and vasoactive adenylate cyclase-activating polypeptide receptor type 2 (VPAC2R). […] Functional antagonism was assayed by measuring the production of cAMP in intact CHO cells stimulated by agonists specific for their cognate receptors (i.e., glucagon for GCGR-expressing cell lines, GIP for the GIPR-expressing line, etc.).

T1 sequence (P47871 26-477): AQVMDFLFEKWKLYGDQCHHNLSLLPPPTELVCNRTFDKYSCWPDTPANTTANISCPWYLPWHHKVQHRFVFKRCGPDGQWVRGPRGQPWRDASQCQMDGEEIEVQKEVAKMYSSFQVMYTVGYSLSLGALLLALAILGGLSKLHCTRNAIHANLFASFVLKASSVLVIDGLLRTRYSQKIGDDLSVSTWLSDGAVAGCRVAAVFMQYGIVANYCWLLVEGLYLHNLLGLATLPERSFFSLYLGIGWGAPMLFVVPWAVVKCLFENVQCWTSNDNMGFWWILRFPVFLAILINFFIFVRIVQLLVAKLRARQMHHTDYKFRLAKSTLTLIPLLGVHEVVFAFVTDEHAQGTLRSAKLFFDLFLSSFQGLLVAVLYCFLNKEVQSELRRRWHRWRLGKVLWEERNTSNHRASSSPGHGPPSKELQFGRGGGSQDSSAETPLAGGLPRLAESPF

SMILES: COc1ccc2cc(-c3cc(-c4cc(C(F)(F)F)ccc4F)nn3[C@@H](C)c3ccc(C(=O)NCCC(=O)O)cc3)ccc2c1 [GRA1, N-[4-((1S)-1-{3-(2-fluoro-5-trifluoromethylphenyl)-5-[6-methoxynaphth-2-yl]-1H-pyrazol-1-yl}ethyl)benzoyl]-β-alanine]
- IC50 (human GCGR (hGCGR)): 12 nM
- IC50 [1]: 7850 nM
- Reduction of magnitude of glucagon-stimulated blood glucose excursion (rhesus monkey): about 50%
- IC50 (rhesus GCGR): 15 nM
